Test results as given in ChEMBL document CHEMBL1201862, “PubChem BioAssay data set” (2004).
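Five compound concentrations were applied to cells in 96-well plates for 48 hours; endpoints were derived by simple linear interpolation of the resulting dose-response curve. GI50: concentration for 50% inhibition of growth.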 Calls of active or inactive are those of the source. Cut-off read from the data, not from the text of the source: active = GI50 up to about 1.1 µM and inactive = higher.

Columns and labels:
Experiment in all cases: DTP human tumour cell line panel, 48 h
786-0 = tested on: 786-0
CAKI-1 = tested on: CAKI-1
CCRF-CEM = tested on: CCRF-CEM
HOP-62 = tested on: HOP-62
KM12 = tested on: KM12
LOX IMVI = tested on: LOX IMVI
M14 = tested on: M14
NCI-H522 = tested on: NCI-H522
NCI/ADR-RES = tested on: NCI/ADR-RES
OVCAR-3 = tested on: OVCAR-3
OVCAR-4 = tested on: OVCAR-4
OVCAR-5 = tested on: OVCAR-5
OVCAR-8 = tested on: OVCAR-8
SK-MEL-5 = tested on: SK-MEL-5
SK-OV-3 = tested on: SK-OV-3
UACC-62 = tested on: UACC-62
HCC 2998 = tested on: HCC 2998
SR = tested on: SR

Row | SMILES | GI50 (786-0) | GI50 (CAKI-1) | GI50 (CCRF-CEM) | GI50 (HOP-62) | GI50 (KM12) | GI50 (LOX IMVI) | GI50 (M14) | GI50 (NCI-H522) | GI50 (NCI/ADR-RES) | GI50 (OVCAR-3) | GI50 (OVCAR-4) | GI50 (OVCAR-5) | GI50 (OVCAR-8) | GI50 (SK-MEL-5) | GI50 (SK-OV-3) | GI50 (UACC-62) | GI50 (HCC 2998) | GI50 (SR)
1 | CC1(C)CC[C@]2(C)[C@@H](O)C[C@]3(C)C(=CC[C@@H]4[C@@]5(C)CC[C@H](O)C(C)(C)[C@@H]5CC[C@]43C)[C@@H]2C1 | 33.3 µM (inactive) | 34.5 µM (inactive) | > 100 µM (inactive) | 37 µM (inactive) | 41.4 µM (inactive) | 16.4 µM (inactive) | 93.1 µM (inactive) | 25.7 µM (inactive) | 40 µM (inactive) | 65.2 µM (inactive) | 97.3 µM (inactive) | 97.3 µM (inactive) | 20.3 µM (inactive) | 35.3 µM (inactive) | 14.9 µM (inactive) | 58.7 µM (inactive) | – | –
2 | O=C1OC(Cl)C(N=P(c2ccccc2)(c2ccccc2)c2ccccc2)=C1Cl (stereo unspecified) | 80.4 µM (inactive) | > 100 µM (inactive) | > 100 µM (inactive) | > 100 µM (inactive) | > 100 µM (inactive) | > 100 µM (inactive) | > 100 µM (inactive) | > 100 µM (inactive) | – | > 100 µM (inactive) | > 100 µM (inactive) | – | > 100 µM (inactive) | > 100 µM (inactive) | > 100 µM (inactive) | > 100 µM (inactive) | > 100 µM (inactive) | > 100 µM (inactive)
3 | CC(C)c1cccc(C(C)C)c1NC(=O)C(=O)C(C(=O)c1ccc2ccccc2c1)C1OC(=O)c2ccccc21 (stereo unspecified) | > 100 µM (inactive) | 52.4 µM (inactive) | > 100 µM (inactive) | 82.2 µM (inactive) | > 100 µM (inactive) | > 100 µM (inactive) | > 100 µM (inactive) | > 100 µM (inactive) | – | > 100 µM (inactive) | > 100 µM (inactive) | 26.9 µM (inactive) | > 10 µM (inactive) | > 100 µM (inactive) | > 100 µM (inactive) | > 100 µM (inactive) | > 100 µM (inactive) | > 100 µM (inactive)
4 | CC(SC(=S)N1CCCCC1)C(=O)Nc1nnc(-c2ccc(Cl)cc2)o1 (stereo unspecified) | 16.9 µM (inactive) | – | – | 11.8 µM (inactive) | – | 23.6 µM (inactive) | 20.1 µM (inactive) | – | 17.5 µM (inactive) | 11 µM (inactive) | 27.4 µM (inactive) | 51.8 µM (inactive) | 38.5 µM (inactive) | 32.1 µM (inactive) | 21.5 µM (inactive) | 25.2 µM (inactive) | 34.8 µM (inactive) | –
5 | CC1(C)CC(=O)C(CC2C(=O)c3ccccc3C2=O)C(=O)C1C(=O)C(=O)Nc1cccc2ccc(O)cc12 (stereo unspecified) | > 100 µM (inactive) | 34.4 µM (inactive) | < 0.01 µM (active) | – | > 100 µM (inactive) | 94.4 µM (inactive) | > 100 µM (inactive) | > 100 µM (inactive) | 54.1 µM (inactive) | 48.9 µM (inactive) | 88.7 µM (inactive) | > 100 µM (inactive) | > 100 µM (inactive) | > 100 µM (inactive) | > 100 µM (inactive) | > 100 µM (inactive) | > 100 µM (inactive) | –
6 | O=C1c2ccccc2-c2c1c(-c1ccc(O)cc1O)nc1ccc3ccccc3c21 | > 100 µM (inactive) | > 100 µM (inactive) | > 100 µM (inactive) | 49 µM (inactive) | > 100 µM (inactive) | – | > 100 µM (inactive) | – | > 100 µM (inactive) | – | > 100 µM (inactive) | > 100 µM (inactive) | 79.6 µM (inactive) | – | > 100 µM (inactive) | > 100 µM (inactive) | > 100 µM (inactive) | –
7 | CC(=O)N[C@H]1CCCC[C@@H]1OC(C)=O | > 100 µM (inactive) | > 100 µM (inactive) | – | > 100 µM (inactive) | > 100 µM (inactive) | > 100 µM (inactive) | – | > 100 µM (inactive) | > 100 µM (inactive) | > 100 µM (inactive) | > 100 µM (inactive) | > 100 µM (inactive) | > 100 µM (inactive) | > 100 µM (inactive) | > 100 µM (inactive) | > 100 µM (inactive) | > 100 µM (inactive) | –
